According to patent publication US8957093B2, “N-biphenylmethylindole modulators of PPARG” (The Scripps Research Institute, priority 2011, dated 2015):
Where two headings read alike, the source gives them in different places.

Assays:
[1] = target: GST-PPARG-LBD (Homo sapiens (Human), UniProt P37231); assay: Lanthascreen PPARG competitive binding assay (Invitrogen, TR-FRET); conditions: inc = incomplete curve, NA = not active, read-out: IC50 (nM) Lantha
Procedure, shortened: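 TR-FRET competitive binding of GST-PPARG-LBD with 5 nM Tb-GST-antibody and 5 nM Fluormone Pan-PPAR Green tracer, in TR-FRET buffer C. Compound serially diluted from 10 μM, 2 h dark incubation, in triplicate. Readout is 520/490 nm emission ratio (340 nm excitation), expressed as fold change over 2% DMSO control.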

[2] = target: Gal-4-PPAR (human PPAR LBD fused to GAL4 DNA-binding domain) (Homo sapiens (Human), UniProt P37231); assay: GAL4-PPARG LBD / UAS-luciferase transactivation assay in HEK 293T cells; format: cell-based
[3] = Lanthascreen PPARG competitive binding
[4] = GAL4 transactivation; read-out: EC50 (nM) GAL4
[5] = HEK-293T, 18 h; read-out: % transactivation at 10 μM (GAL4)
[6] = Lanthascreen competitive binding
[7] = GAL4 transactivation, HEK 293T cells; NA = not active; read-out: EC50 (nM) GAL4
[8] = HEK-293T, 18 h, read-out: % transactivation at 10 μM (GAL4)

GST-PPARG-LBD, sequence (P37231 238-503): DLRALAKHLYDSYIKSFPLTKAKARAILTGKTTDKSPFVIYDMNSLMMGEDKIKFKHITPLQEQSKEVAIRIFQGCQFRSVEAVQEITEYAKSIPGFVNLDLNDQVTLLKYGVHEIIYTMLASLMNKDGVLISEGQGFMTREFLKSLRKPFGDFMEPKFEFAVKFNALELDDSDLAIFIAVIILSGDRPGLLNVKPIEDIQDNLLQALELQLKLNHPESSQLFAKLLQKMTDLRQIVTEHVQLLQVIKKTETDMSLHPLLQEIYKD
Gal-4-PPAR (human PPAR LBD fused to GAL4 DNA-binding domain), sequence (P37231 238-503): as above

IC50 [1, 6]	EC50 [2, 7]	activation at 10 µM [2, 8]	Structure (SMILES)	IC50 [1, 3]	EC50 [2, 4]	activation at 10 µM [2, 5]
–	–	–	Cc1c(C)n(Cc2ccc(-c3ccccc3C(=O)O)cc2)c2ccc(C(=O)N[C@@H](C)c3ccc(C4CC4)cc3)cc12 [Example 304, (S)-4′-((5-((1-(4-Cyclopropylphenyl)ethyl)carbamoyl)-2,3-dimethyl-1H-indol-1-yl)methyl)-[1,1′-biphenyl]-2-carboxylic acid]	50 nM	2420 nM	15%
512 nM	5240 nM	–	Cc1c(C)n(Cc2ccc(-c3ccccc3C(=O)O)cc2)c2ccc(C(=O)N[C@H](C)c3ccnc4ccccc34)cc12 [Example 181, (R)-4′-((2,3-dimethyl-5-((1-(quinolin-4-yl)ethyl)carbamoyl)-1H-indol-1-yl)methyl)-[1,1′-biphenyl]-2-carboxylic acid]	–	–	40%
18 nM	297 nM	–	Cc1c(C)n(Cc2ccc(-c3ccccc3C(=O)O)cc2)c2ccc(C(=O)N[C@@H](C)c3cccc(Cl)c3F)cc12 [Example 232, (S)-4′-((5-((1-(3-chloro-2-fluorophenyl)ethyl)carbamoyl)-2,3-dimethyl-1H-indol-1-yl)methyl)-[1,1′-biphenyl]-2-carboxylic acid]	–	–	30%
9 nM	166 nM	–	Cc1c(C)n(Cc2ccc(-c3ccccc3C(=O)O)cc2)c2ccc(C(=O)N[C@@H](C)c3ccc(F)c(F)c3)cc12 [Example 233, (S)-4′-((5-((1-(3,4-difluorophenyl)ethyl)carbamoyl)-2,3-dimethyl-1H-indol-1-yl)methyl)-[1,1′-biphenyl]-2-carboxylic acid]	–	–	40%
5 nM	180 nM	–	Cc1c(C)n(Cc2ccc(-c3ccccc3C(=O)O)cc2)c2ccc(C(=O)N[C@@H](C)c3ccc(F)cc3F)cc12 [Example 150, (S)-4′-((5-((1-(2,4-difluorophenyl)ethyl)carbamoyl)-2,3-dimethyl-1H-indol-1-yl)methyl)-[1,1′-biphenyl]-2-carboxylic acid]	–	–	30%
–	–	–	Cc1c(C)n(Cc2ccc(-c3ccccc3C(=O)NS(C)(=O)=O)cc2)c2ccc(C(=O)N[C@@H](C)c3cccc(C(C)C)c3)cc12 [Example 314, (S)—N-(1-(3-Isopropylphenyl)ethyl)-2,3-dimethyl-1-((2′-((methylsulfonyl)carbamoyl)-[1,1′-biphenyl]-4-yl)methyl)-1H-indole-5-carboxamide]	285 nM	1650 nM	5%
2 nM	507 nM	–	Cc1c(C)n(Cc2ccc(-c3ccccc3C(=O)O)cc2)c2ccc(C(=O)NCc3ccc(Cl)cc3C(F)(F)F)cc12 [Example 165, 4′-((5-((4-chloro-2-(trifluoromethyl)benzyl)carbamoyl)-2,3-dimethyl-1H-indol-1-yl)methyl)-[1,1′-biphenyl]-2-carboxylic acid]	–	–	15%
–	–	–	Cc1c(C)n(Cc2ccc(-c3ccccc3C(=O)O)cc2)c2ccc(C(=O)N[C@@H](C)c3cccc(Br)n3)cc12 [Example 273, (S)-4′-((5-(1-(6-bromopyridin-2-yl)ethylcarbamoyl)-2,3-dimethyl-1H-indol-1-yl)methyl)biphenyl-2-carboxylic acid]	15 nM	294 nM	30%
36 nM	173 nM	20%	Cc1c(C)n(Cc2ccc(-c3ccccc3C(=O)O)cc2)c2ccc(C(=O)N[C@@H](C)c3ccc(F)cc3C(F)(F)F)cc12 [Example 227, (S)-4′-((5-((1-(4-fluoro-2-(trifluoromethyl)phenyl)ethyl)carbamoyl)-2,3-dimethyl-1H-indol-1-yl)methyl)-[1,1′-biphenyl]-2-carboxylic acid]	–	–	–
9 nM	106 nM	–	Cc1c(C)n(Cc2ccc(-c3ccccc3C(=O)O)cc2)c2ccc(C(=O)N[C@@H](C)c3cc(C(F)(F)F)ccc3C(F)(F)F)cc12 [Example 172, (S)-4′-((5-((1-(2,5-bis(trifluoromethyl)phenyl)ethyl)carbamoyl)-2,3-dimethyl-1H-indol-1-yl)methyl)-[1,1′-biphenyl]-2-carboxylic acid]	–	–	8%
51 nM	6060 nM	–	Cc1c(C)n(Cc2ccc(-c3ccccc3C(=O)O)cc2)c2ccc(C(=O)N[C@@H](C)c3c(Cl)cccc3Cl)cc12 [Example 142, (S)-4′-((5-((1-(2,6-dichlorophenyl)ethyl)carbamoyl)-2,3-dimethyl-1H-indol-1-yl)methyl)-[1,1′-biphenyl]-2-carboxylic acid]	–	–	15%
103 nM	709 nM	20%	Cc1c(C)n(Cc2ccc(-c3ccccc3C(=O)O)cc2)c2ccc(C(=O)N[C@@H](C)c3cccc(C(F)(F)F)c3Cl)cc12 [Example 230, (S)-4′-((5-((1-(2-Chloro-3-(trifluoromethyl)phenyl)ethyl)carbamoyl)-2,3-dimethyl-1H-indol-1-yl)methyl)-[1,1′-biphenyl]-2-carboxylic acid]	–	–	–
30 nM	529 nM	–	Cc1c(C)n(Cc2ccc(-c3ccccc3C(=O)O)cc2)c2ccc(C(=O)N[C@H](C)c3c(Cl)cccc3Cl)cc12 [Example 141, (R)-4′-((5-((1-(2,6-dichlorophenyl)ethyl)carbamoyl)-2,3-dimethyl-1H-indol-1-yl)methyl)-[1,1′-biphenyl]-2-carboxylic acid]	–	–	20%
20 nM	9280 nM	–	COc1cc(OC)cc([C@H](C)NC(=O)c2ccc3c(c2)c(C)c(C)n3Cc2ccc(-c3ccccc3C(=O)O)cc2)c1 [Example 147, (S)-4′-((5-((1-(3,5-dimethoxyphenyl)ethyl)carbamoyl)-2,3-dimethyl-1H-indol-1-yl)methyl)-[1,1′-biphenyl]-2-carboxylic acid]	–	–	20%

Structure (SMILES)	IC50 [1, 6]	EC50 [2, 7]	activation at 10 µM [2, 8]	IC50 [1, 3]	EC50 [2, 4]	activation at 10 µM [2, 5]
Cc1c(C)n(Cc2ccc(-c3ccccc3C(=O)O)cc2)c2ccc(C(=O)N[C@@H](C)c3cc(Cl)cc(Cl)c3)cc12 [Example 219, (S)-4′-((5-((1-(3,5-dichlorophenyl)ethyl)carbamoyl)-2,3-dimethyl-1H-indol-1-yl)methyl)-[1,1′-biphenyl]-2-carboxylic acid]	15 nM	155 nM	–	–	–	30%
Cc1c(C)n(Cc2ccc(-c3ccccc3C(=O)O)cc2)c2ccc(C(=O)N[C@@H](C)c3cc(C(F)(F)F)ccc3F)cc12 [Example 221, (S)-4′-((5-((1-(2-fluoro-5-(trifluoromethyl)phenyl)ethyl)carbamoyl)-2,3-dimethyl-1H-indol-1-yl)methyl)-[1,1′-biphenyl]-2-carboxylic acid]	11 nM	156 nM	–	–	–	20%
CC[C@@H](NC(=O)c1ccc2c(ccn2Cc2ccccc2-c2ccc(C(=O)O)cc2)c1)c1ccccc1 [Example 190, (R)-2′-((5-((1-phenylpropyl)carbamoyl)-1H-indol-1-yl)methyl)-[1,1′-biphenyl]-4-carboxylic acid]	5 nM	51 nM	–	–	–	45%
Cc1c(C)n(Cc2ccc(-c3ccccc3C(=O)O)cc2)c2ccc(C(=O)NC(C)c3cncc(C4CC4)c3)cc12 (stereo not drawn) [Example 259, 4′-((5-(1-(5-cyclopropylpyridin-3-yl)ethylcarbamoyl)-2,3-dimethyl-1H-indol-1-yl)methyl)biphenyl-2-carboxylic acid]	19 nM	1480 nM	–	–	–	15%
COc1cc(C(F)(F)F)ccc1[C@H](C)NC(=O)c1ccc2c(c1)c(C)c(C)n2Cc1ccc(-c2ccccc2C(=O)O)cc1 [Example 223, (S)-4′-((5-((1-(2-methoxy-4-(trifluoromethyl)phenyl)ethyl)carbamoyl)-2,3-dimethyl-1H-indol-1-yl)methyl)-[1,1′-biphenyl]-2-carboxylic acid]	73 nM	676 nM	–	–	–	10%
Cc1c(C)n(Cc2ccc(-c3ccccc3C(=O)O)cc2)c2ccc(C(=O)N[C@@H](C)c3ccc(C4CC4)nc3)cc12 [Example 263, (S)-4′-((5-((1-(6-cyclopropylpyridin-3-yl)ethyl)carbamoyl)-2,3-dimethyl-1H-indol-1-yl)methyl)-[1,1′-biphenyl]-2-carboxylic acid]	59 nM	3760 nM	–	–	–	20%
Cc1c(C)n(Cc2ccc(-c3ccccc3C(=O)O)cc2)c2ccc(C(=O)N[C@@H](C)c3ccc(Cl)nc3)cc12 [Example 262, (S)-4′-((5-((1-(6-chloropyridin-3-yl)ethyl)carbamoyl)-2,3-dimethyl-1H-indol-1-yl)methyl)-[1,1′-biphenyl]-2-carboxylic acid]	144 nM	4000 nM	–	–	–	35%
Cc1c(C)n(Cc2ccc(-c3ccccc3C(=O)O)cc2)c2ccc(C(=O)N[C@@H](C)C3COc4ccccc4O3)cc12 (stereo partly drawn) [Example 214, 4′-((5-(((1S)-1-(2,3-dihydrobenzo[b][1,4]dioxin-2-yl)ethyl)carbamoyl)-2,3-dimethyl-1H-indol-1-yl)methyl)-[1,1′-biphenyl]-2-carboxylic acid]	25 nM	2350 nM	–	–	–	20%
Cc1c(C)n(Cc2ccc(-c3ccccc3C(=O)O)cc2)c2ccc(C(=O)N[C@@H](C)c3ccccc3C(F)(F)F)cc12 [Example 208, (S)-4′-((2,3-dimethyl-5-((1-(2-(trifluoromethyl)phenyl)ethyl)carbamoyl)-1H-indol-1-yl)methyl)-[1,1′-biphenyl]-2-carboxylic acid]	22 nM	369 nM	–	–	–	20%
